Patent US10202399B2, “Dihydroxy aromatic heterocyclic compound” (Takeda Pharmaceutical Company Limited, priority 2011, dated 2019)
pIC50: −log10 of the molar value.

How the values were obtained:
[1] = molecular target: recombinant human DAAO protein (Homo sapiens (Human), UniProt P14920); experiment: DAAO inhibitory activity test (H2O2/Amplex red fluorescence); assay type: biochemical; conditions: D-alanine substrate, Amplex red fluorescence
Experimental: The DAAO inhibitory activity was measured by assaying the amount of hydrogen peroxide (H2O2) produced by reacting DAAO protein with flavin adenine dinucleotide (FAD) and D-alanine. The amount of H2O2 was determined by measuring the fluorescence generated on conversion of Amplex red (manufactured by Invitrogen Co.) into resorufin by the reaction of H2O2 with horseradish peroxidase (HRP).
Escherichia coli strain BL21(DE3) (manufactured by Novagen) was transformed with the constructed human DAAO expression vector, inoculated into LB culture medium containing kanamycin at a final concentration of 20 μg/mL, and shake-cultured at 37° C. overnight. The multiplied transformant was inoculated into Terrific Broth containing kanamycin at a final concentration of 20 μg/mL, and shake-cultured at 37° C. until it reached OD600=3.0. Thereafter, the culture was cooled to 30° C., and expression was induced with 1 mM IPTG. After 20 hours, bacterial pellets were recovered by centrifugation.
The bacterial pellets recovered as above were suspended in a lysis buffer (17 mM sodium pyrophosphate buffer pH 8.3, 100 μM FAD, 1 mM sodium benzoate, 1 mM PMSF, 14 mM β-mercaptoethanol, 0.2 mg/mL lysozyme) and the bacteria were fractured by sonication. The sonicated liquid was centrifuged and the supernatant was recovered. […]

[2] = molecular target: HEK293 cells that stably express human DAAO (Homo sapiens (Human), UniProt P14920); experiment: Inhibitory activity test at cellular level using DAAO-expressing cells; assay type: cell-based
Experimental: HEK293 cells that stably express human DAAO were suspended in Cellbanker solution at 5×10^6 cells/ml and cryopreserved at −80° C. At the time of measurement, the cells were centrifuged at 1000 rpm for one min and the Cellbanker solution was removed. […] A 4% DMSO buffer solution (50 mM sodium phosphate [pH 7.5], 0.02% CHAPS) of the test compound (4 μL) was added to a 384-well black, low volume plate, the cell suspension (4 μL) was added, and the mixture was incubated at room temperature for 15 min.
Reverse transcription was performed on human normal kidney tissue-derived RNA (Clontech Corp.) using reverse transcriptase (SuperScriptIII, Life Technologies Corporation) and oligo (dT) primer (Life Technologies Corporation) according to the protocol of the kit (Life Technologies Corporation) and cDNA was synthesized. Then, using human DAAO_HindIII_F represented by Sequence No. 1 and human DAAO_BamHI_R represented by Sequence No. 2, a PCR reaction (35 cycles of 98° C. for 15 sec, 55° C. for 15 sec and 68° C. for 1 min 30 sec) was performed using DNA polymerase (PrimeSTAR, TAKARA BIO INC.) and cDNA obtained as above as a template. […] The PCR product was cloned in a cloning vector (pCR2.1-TOPO Cloning Kit, Life Technologies Corporation). The sequence of the insert was determined by the dideoxy sequence method (BigDye Terminator v3.1 Cycle Sequencing Kit; Life Technologies Corporation). […]

O=c1[nH]nc(COc2ccc(Cl)cc2)cc1O [Example 254]
pIC50 [1]: 8.57 | pIC50 [2]: 8.20
